Here are results for 4 compounds from patent US11185523B2, “Use of bipolar trans carotenoids with chemotherapy and radiotherapy for treatment of cancer” (DIFFUSION PHARMACEUTICALS LLC, priority 2016, dated 2021).

Read-outs that look alike come from different tables or passages of the source.

In series [1] the test system is metastatic pancreatic cancer. To be noted: metastatic disease, erlotinib with gemcitabine vs gemcitabine alone, cited from earlier work; for one-year survival rate: P=0.023; for median overall survival: P=0.038.
Series [2] concerns DMBA breast tumors. The experiment in a line: DMBA breast tumor model, TSC before chemotherapy. Format: in vivo. To be noted: TSC and control groups. The protocol:
Breast tumors were induced through injection of DMBA (dimethylbenzantracene) under the mammary tissue of female rats. The tumors usually grow in most rats and reach measurable conditions after 10 days.
The following studies used a method in which a 3-mL syringe is filled first with 1 ml of DMBA dissolved in sunflower seed oil (20 mg DMBA per mL of solution). Following that, 2 mL's of air are pulled into the syringe. The needle of the syringe is then inserted under the mammary tissue near a hind leg and the air in the syringe is carefully injected. The injection of the air forms a “pocket”, and then the 1 mL of DMBA solution is injected into that pocket.
After the tumors have grown up (about 10 days), their volumes are estimated by measuring the diameter (d) and the length (L) of the football-shaped tumors formed. This is done using calipers after feeling the tumor with one's fingers. To estimate the volume of the tumor, you multiply the diameter squared times the length and divide by 2: Tumor volume (in mm3)={(d in mm)^22}×(L in mm)
TSC or saline (controls) was injected in the tail vein of the rats at a volume of 0.1 mL and a dose of 0.25 mg/kg TSC about 1-2 hours before the chemotherapeutic agent was injected intraperitoneally (IP) in the rats.
In order to understand which dosages are efficacious when used with chemotherapy, a rat model of breast tumors was used. The model involves injecting the chemical dimethylbenzanthracene (DMBA) under the mammary gland of a female Sprague-Dawley rat. After a few days, tumors begin to grow and can be measured by feeling the football-shaped tumor under the skin and measured using calipers.

The test system of series [3] is pancreatic cancer. Particulars: cited from earlier work; for overall survival: Folfirinox regimen vs gemcitabine.
The subject of series [4] is metastatic pancreatic cancer. To be noted: treatment naive patients with metastatic cancer; nab-paclitaxel plus gemcitabine vs gemcitabine; cited from earlier work.
Series [5] deals with recurrent GBM. Particulars: cited from earlier work.
Series [6] deals with newly diagnosed GBM. Particulars: cited from earlier work.

For `C#Cc1cccc(Nc2ncnc3cc(OCCOC)c(OCCOC)cc23)c1` [erlotinib], in series [1], the one-year survival rate is listed as 23% and the median overall survival is on record as 6.24 months.
With `Nc1ccn([C@@H]2O[C@H](CO)[C@@H](O)C2(F)F)c(=O)n1` [gemcitabine, reference compound], the mortality entry in series [2] (gemcitabine 5 mg/kg IP on days 0, 3) is given as “Most rats in both groups were dead on Day 7”; in series [2] (gemcitabine 10 mg/kg IP on days 0, 3), “Most rats in both groups were dead on Day 6”. Further, in series [1], the one-year survival rate is 17%. For the same compound, the median overall survival in series [1] is 5.91 months. Further, the overall survival in series [3] was 6.8 months; in series [4] it was 6.7 months.
As for Folfirinox, the overall survival in series [3] is 11.1 months. In series [3] (Folfirinox treatment), the adverse events entry is listed as “accompanied by serious adverse events”.
Turning to bevacizumab, the overall six-month survival in series [5] (Phase 2 study, recurrent GBM) was 54%. In addition, the six-month progression-free survival in series [5] (Phase 2 study, recurrent GBM, historical 9-15%) is reported as 25%; in series [5] (another Phase 2 study, lower dose but higher frequency), 42.6%. The “symptom burden, quality of life, neurocognitive function” value in series [6] (human, in vivo) was “increased symptom burden, a worse quality of life, and a decline in neurocognitive function”. For the same compound, the progression free survival result in series [6] (radiation, TMZ and bevacizumab vs only radiation and TMZ, both studies) is “increase in progression free survival”. Further, in series [6] (radiation, TMZ and bevacizumab vs only radiation and TMZ, two clinical trials), the overall survival result is reported as “no difference in overall survival”.
